# Assay results published in US6670363B1, “Azole compounds as therapeutic agents for fungal infections” (Ranbaxy Laboratories Limited, priority 2000, dated 2003).
# How the values were obtained:
# A. fumigatus s 1008 = assay: In vitro MIC, NCCLS M38P broth method (RPMI 1640/MOPS pH7), Aspergillus fumigatus; format: cell-based; details: A. fumigatus strain 1008
# Candida = assay: In vitro MIC, NCCLS M27A, Candida species; format: cell-based; parameters: MIC, Candida albicans 1.549 / MIC, Candida albicans Y-01-19 / MIC, C. krusei 766-1 / MIC, C. krusei Q. C / MIC, Candida tropicalis ATCC / MIC, C. glabrata 90030: unit not given beside the values; MIC, Candida albicans A 26 / MIC, C. parapsilosis Q. C.: unit not given here; details: for MIC, C. glabrata 90030: C. glabrata strain 90030; for MIC, C. krusei 766-1: C. krusei strain 766-1; for MIC, C. krusei Q. C: C. krusei strain Q. C; for MIC, C. parapsilosis Q. C.: C. parapsilosis strain Q. C.; for MIC, Candida albicans 1.549: Candida albicans strain 1.549; for MIC, Candida albicans A 26: Candida albicans strain A 26; for MIC, Candida albicans Y-01-19: Candida albicans strain Y-01-19
# Cryptococcus neoformans = assay: In vitro MIC, NCCLS M27A, Cryptococcus neoformans; format: cell-based; parameters: MIC, C. neoformans I: unit not given beside the values; MIC, C. neoformans M 106: unit not given here; details: for MIC, C. neoformans I: C. neoformans strain I; for MIC, C. neoformans M 106: C. neoformans strain M 106
# Histoplasma capsulatum = format: cell-based
SMILES,"MIC, A. fumigatus 1008 (A. fumigatus s 1008)","MIC, C. glabrata 90030 (Candida)","MIC, C. krusei 766-1 (Candida)","MIC, C. krusei Q. C (Candida)","MIC, C. parapsilosis Q. C. (Candida)","MIC, Candida albicans 1.549 (Candida)","MIC, Candida albicans A 26 (Candida)","MIC, Candida albicans Y-01-19 (Candida)","MIC, Candida tropicalis ATCC (Candida)","MIC, C. neoformans I (Cryptococcus neoformans)","MIC, C. neoformans M 106 (Cryptococcus neoformans)",melting point [°C],"MIC, H. capsulatum (Histoplasma capsulatum) [µg/mL]"
"Cc1ccc(N2CCN(c3ccc(-n4cnn(CC(O)(Cn5cncn5)c5ccc(F)cc5F)c4=O)cc3)CC2)cc1Cl (centres unmarked) [Compound 49, 2-[2-(2,4-Difluorophenyl)-2-hydroxy-3-(1H-1,2,4-triazol-1-yl)propyl]-4-{4-[4-(3-chloro-4-methylphenyl)-1-piperazinyl]phenyl}-3-(2H,4H)-1,2,4-triazolone]",4.00,0.25,0.25,0.06,<0.03,<0.03,<0.03,<0.03,<0.03,<0.03,<0.03,189 to 201,< 0.03
"O=c1n(-c2ccc(N3CCN(c4ccc(Cl)cc4Cl)CC3)cc2)cnn1CC(O)(Cn1cncn1)c1ccc(F)cc1F (centres unmarked) [Compound 50, 2-[2-(2,4-Difluorophenyl)-2-hydroxy-3-(1H-1,2,4-triazol-1-yl)propyl]-4-{4-[4-(2,4-dichlorophenyl)-1-piperazinyl]phenyl}-3-(2H,4H)-1,2,4-triazolone]",2.00,0.50,0.50,0.25,<0.03,0.12,<0.03,0.12,<0.03,<0.03,<0.03,97 to 99,< 0.03
"O=c1n(-c2ccc(N3CCN(c4cccc(C(F)(F)F)c4)CC3)cc2)cnn1CC(O)(Cn1cncn1)c1ccc(F)cc1F (centres unmarked) [Compound 51, 2-[2-(2,4-Difluorophenyl)-2-hydroxy-3-(1H-1,2,4-triazol-1-yl)propyl]-4-{4-[4-(3-trifluoromethylphenyl)-1-piperazinyl]phenyl}-3-(2H,4H)-1,2,4-triazolone]",>16,1.00,1.00,0.25,0.06,0.25,<0.03,0.25,<0.03,<0.03,<0.03,166 to 168,< 0.03
"O=c1n(-c2ccc(N3CCN(c4ccc(F)cc4F)CC3)cc2)cnn1CC(O)(Cn1cncn1)c1ccc(F)cc1F (centres unmarked) [Compound 52, 2-[2-(2,4-Difluorophenyl)-2-hydroxy-3-(1H-1,2,4-triazol-1-yl)propyl]-4-{4-[4-(2,4-difluorophenyl)-1-piperazinyl]phenyl}-3-(2H,4H)-1,2,4-triazolone]",>16,1.00,4.00,0.50,<0.03,0.06,<0.03,0.12,<0.03,<0.03,<0.03,157 to 158,< 0.03
"O=c1n(-c2ccc(N3CCN(c4ccc(F)c(Cl)c4)CC3)cc2)cnn1CC(O)(Cn1cncn1)c1ccc(F)cc1F (centres unmarked) [Compound 53, 2-[2-(2,4-Difluorophenyl)-2-hydroxy-3-(1H-1,2,4-triazol-1-yl)propyl]-4-{4-[4-(3-chloro-4-fluorophenyl)-1-piperazinyl]phenyl}-3-(2H,4H)-1,2,4-triazolone]",4.00,0.50,0.50,0.12,<0.03,0.06,<0.03,<0.03,<0.03,<0.03,<0.03,182 to 185,< 0.03
"Cc1ccc(N2CCN(c3ccc(-n4cnn(CC(O)(Cn5cncn5)c5ccc(F)cc5F)c4=O)cc3)CC2)c(C)c1 (centres unmarked) [Compound 54, 2-[2-(2,4-Difluorophenyl)-2-hydroxy-3-(1H-1,2,4-triazol-1-yl)propyl]-4-{4-[4-(2,4-dimethylphenyl)-1-piperazinyl]phenyl}-3-(2H,4H)-1,2,4-triazolone]",2.00,1.00,0.50,0.12,<0.03,8.00,<0.03,0.12,<0.03,<0.03,<0.03,76 to 77,0.06
"O=c1n(-c2ccc(N3CCN(c4ccc(F)c(F)c4)CC3)cc2)cnn1CC(O)(Cn1cncn1)c1ccc(F)cc1F (centres unmarked) [Compound 55, 2-[2-(2,4-Difluorophenyl)-2-hydroxy-3-(1H-1,2,4-triazol-1-yl)propyl]-4-{4-[4-(3,4-difluorophenyl)-1-piperazinyl]phenyl}-3-(2H,4H)-1,2,4-triazolone]",>16,0.25,1.00,0.12,<0.03,0.03,<0.03,0.03,<0.03,<0.03,0.02,117 to 118,0.004
"Cc1ccc(N2CCN(c3ccc(-n4cnn(CC(O)(Cn5cncn5)c5ccc(F)cc5F)c4=O)cc3)CC2)cc1C (centres unmarked) [Compound 56, 2-[2-(2,4-Difluorophenyl)-2-hydroxy-3-(1H-1,2,4-triazol-1-yl)propyl]-4-{4-[4-(3,4-dimethylphenyl)-1-piperazinyl]phenyl}-3-(2H,4H)-1,2,4-triazolone]",>16,0.25,1.00,0.25,<0.03,0.06,<0.03,0.03,<0.03,<0.03,0.03,136 to 137,0.004
"O=c1n(-c2ccc(N3CCN(c4cccc(Cl)c4)CC3)cc2)cnn1CC(O)(Cn1cncn1)c1ccc(F)cc1F (centres unmarked) [Compound 57, 2-[2-(2,4-Difluorophenyl)-2-hydroxy-3-(1H-1,2,4-triazol-1-yl)propyl]-4-{4-[4-(3-chlorophenyl)-1-piperazinyl]phenyl}-3-(2H,4H)-1,2,4-triazolone]",>16,0.25,0.50,0.25,<0.03,0.25,<0.03,0.12,<0.03,<0.03,<0.03,177 to 178,0.06
"CCc1ccccc1N1CCN(c2ccc(-n3cnn(CC(O)(Cn4cncn4)c4ccc(F)cc4F)c3=O)cc2)CC1 (centres unmarked) [Compound 60, 2-[2-(2,4-Difluorophenyl)-2-hydroxy-3-(1H-1,2,4-triazol-1-yl)propyl]-4-{4-[4-(2-ethylphenyl)-1-piperazinyl]phenyl}-3-(2H,4H)-1,2,4-triazolone]",>16,0.50,1.00,0.25,<0.03,>16,<0.03,0.25,<0.03,<0.03,<0.03,148 to 150,< 0.03
"O=c1n(-c2ccc(N3CCN(c4cc(Cl)cc(Cl)c4)CC3)cc2)cnn1CC(O)(Cn1cncn1)c1ccc(F)cc1F (centres unmarked) [Compound 61, 2-[2-(2,4-Difluorophenyl)-2-hydroxy-3-(1H-1,2,4-triazol-1-yl)propyl]-4-{4-[4-(3,5-dichlorophenyl)-1-piperazinyl]phenyl}-3-(2H,4H)-1,2,4-triazolone]",>16,0.50,0.50,0.25,<0.03,0.25,<0.03,0.12,<0.03,<0.03,<0.03,222 to 225,< 0.03
